# Assay results reported in US20250113825A1 (priority 2022, published 2025).
# Tests used:
# [1] = test system: Pyricularia oryzae causing neck blast; experiment: whole plant or invertebrate; format: in vivo; conditions: for Observed efficacy of stobilurin fungicide (%): Table 5(a), Picoxystrobin 67.8 g a.i./ha, Trifloxystrobin 100 g a.i./ha alone
# [2] = test system: rice neck blast fungi; format: in vivo, Pyricularia oryzae; conditions: Prothioconazole 120 gai/ha alone or with Azoxystrobin 280, Picoxystrobin 67, Trifloxystrobin 100 gai/ha
smiles,measurement,setting,value
CC(C)OC(=O)C(C(=O)OC(C)C)=C1SCCS1 [Isoprothiolane],Observed efficacy of isoprothiolane (%),"[1]; Table 5(b), Isoprothiolane 250 g a.i./ha alone",48%
CO/C=C(/C(=O)OC)c1ccccc1COc1cccc(C(F)(F)F)n1 [Picoxystrobin],Observed efficacy of stobilurin fungicide (%),[1],42%
"OC(Cc1ccccc1Cl)(Cn1nc[nH]c1=S)C1(Cl)CC1 (centres unmarked) [Prothioconazole, 2-[2-(1-chlorocyclopropyl)-3-(2-chlorophen-yl)-2-hydroxypropyl]-2,4-dihydro-[1,2,4-]-triazole-3-thione]",inhibition at 120 g/ha,"[1]; Pyricularia oryzae, read-out: Observed efficacy of demethylation inhibitor fungicide (%)",49%
same,% Control (rice neck blast),[2],41.49%
CON=C(C(=O)OC)c1ccccc1CON=C(C)c1cccc(C(F)(F)F)c1 [Trifloxystrobin],Observed efficacy of stobilurin fungicide (%),[1],60%
